In one assay the test system is leptin production. The assay is described as follows: Enhancing activity for leptin production in adipocytes (ELISA). The format is cell-based, rat. The following applies: Rattus norvegicus, Adipocyte, 24 h, leptin concentration as % of control group, read-out: Facilitating activity to produce leptin; for activity at 0.1 µM: 100 nm; for activity at 0.01 µM: 10 nm. The protocol:
Hanks solution was used for collection of adipose tissue. The Hanks solution was prepared by filtration of a mixed solution (pH: 7.5) of 120 mM NaCl, 4.8 mM KCl, 0.74 mM MgSO4, 0.30 mM Na2HPO4, 0.40 mM KH2PO4, 20 mM HEPES, 0.05% (w/v) glucose, 2% (w/v) BSA (Sigma-Aldrich Japan K. K., Cat. No. A7888), 0.95 mM CaCl2, 4.17 mM NaHCO3 and 1% (v/v) penicillin-streptomycin liquid (GIBCO BRL, Cat. No. 15140-122). The adipocytes were cultured in Dulbecco's modified Eagle's medium (GIBCO BRL, Cat. No. 11995-040) mixed with DMEM/F-12 (GIBCO BRL, Cat. No. 11320-033) at a ratio of 1:1, and added 0.2% (v/v) Hanks solution, 0.2 μg/L sodium selenite (GIBCO BRL, Cat. No. 13012-018), 0.002% (v/v) ethanolamine, 25 mM HEPES and 1% (v/v) penicillin-streptomycin liquid (GIBCO BRL, Cat. No. 15140-122). As many as possible of the other reagents used were special grade. In this experiment, the cells were cultured in a CO2 incubator (37° C., 95% humidity, 5% CO2).
Male Wistar Imamichi rats of 6 weeks old were sacrificed by bleeding following decapitation, and adipose tissue was removed from the epididymis and sectioned after the vessels were removed in warmed Hanks solution at 37° C. and were weighed. One (1) mL of Hanks solution containing 10 mg collagenase (Wako Pure Chemical Industries, Ltd., 034-10533) was added to the adipose tissue prepared. The solution was transferred into a tube having a volume of 50 mL, and the cells were evenly dispersed by incubation under gentle shaking at 37° C., 90 rpm, for 50 min. Then 20 mL of Hanks solution were added and filtrated through Nylon-mesh with a mesh diameter of 200 μm for removal of undigested tissue pieces. The floating adipocytes were separated from sediments and substances located in the lower layer by centrifugation at 1,000 rpm for 1 min at room temperature. The sediment and 22 mL of the low layer were pulled out with a probe, and the floating adipocytes were recovered. This procedure was repeated twice with Hanks solution and for 4 times with the culture medium. After these procedures the adipocytes were suspended in the culture medium at a volume of 60 mL per 1 g of the adipose tissue weighed previously. 100 μL of the suspended solution were plated in each well of a 96-well microplate (ASAHI TECHNO GLASS Corp.) In the group treated with the test compound, 1 μL/well of DMSO solution containing the dissolved the test compound at concentrations of 200 μM, 20 μM, 2 μM and 0.2 μM (final concentrations of the test compound: 1 μM, 100 nM, 10 nM and 1 nM, respectively) was plated in each of the well. In the control group, 1 μL/well of DMSO (final concentration: 0.1% (v/v)) was plated in each well. The plate was placed stationary in a CO2 incubator for 1 hr or longer, and the contents in the solution were equilibrated at 37° C. After they were equilibrated, the solution in each well was stirred with a magnetic stirrer in a water bath and the suspended solution maintained at 37° C. was plated into each well of the plate at 100 μL/well. After incubation of the cells for 24 hr, the suspended solution of cells was filtrated through a filter for the microplate, MultiScreen (MILLOPORE, MDV-N65). The concentration of leptin in the filtrated solution was determined with ELISA methods by using a Rat Leptin Determination Kit-IBL (Immuno-Biological Laboratories Co., Ltd., Cat. No. 17195). The facilitating activity of the compound to produce leptin was calculated from the following equation based on the concentration of leptin determined.
Facilitating Activity of the Compound to Produce Leptin (%)=(A/B)×100
A: Concentration of Leptin in the Treated Group with the Test Compound.
B: Concentration of Leptin in the Control Group.
In general terms: In an ELISA, binding on a coated surface is turned into a signal by an enzyme label.

A further assay deals with Rat white adipocytes. The assay can be described thus: Inhibition of the differentiation of adipocytes (Oil Red O). Format: cell-based. The conditions noted are these: Rattus norvegicus, Adipocyte, 120 h, 100 nM test compound; 5 days; Oil Red O ABS550; control = 100%, blank = 0%; Table 3; read-out: Rate of Differentiation (%). The protocol:
Rat white adipocytes contained in the white adipocyte culture kit purchased from HOKUDO were used. As the medium for proliferation and for differentiation-inducing, the medium contained in the white adipocyte culture kit purchased from HOKUDO was used. The cells in the present experiment were cultured in a CO2 incubator (37° C., 95% R.H., 5% CO2).
Immediately after arrival of the purchased cells, all medium for transportation was discarded and replaced with 5 ml of proliferation medium (/25 cm^2-flask) and the cells were cultured for one day. Then, a cell suspension was prepared with proliferation medium so as to be 83,000 cells/mL, and the cell suspension was plated into a type I 96-well collagen-coated microplate (SUMITOMO BAKELITE CO., ltd.) so as to be 5,000 cells/well (60 μL/well).
On the next day, all the proliferation medium was discarded and replaced with 147 μL/well of differentiation-inducing medium. Further, 1) in the group treated with the test compound, 3 μL/well of the solution, in which a test compound (100 μM) was dissolved in DMSO solution and diluted with differentiation-inducing medium by 20 times (final concentration of the test compound: 100 nM, final concentration of DMSO solution: 0.1% (v/v)), were added to the well where the cells were plated. 2) In the control group, 3 μL/well of DMSO solution that was diluted with differentiation-inducing medium by 20 times (final concentration of DMSO: 0.1% (v/v)) were added to the well where the cells were plated. Further, 3) in the blank group, 3 μL/well of DMSO solution that was diluted with differentiation-inducing medium by 20 times (final concentration: 0.1% (v/v)), was added to the blank well.
After culturing for 5 days, all differentiation-inducing medium was discarded and replaced with 60 μL of 10% (v/v) formaldehyde solution (for fixation) in each well and the cells were kept stationary for 20 min at room temperature. After this, the fixative solution was discarded and replaced with 60 μL of 0.2% (v/v) Triton X (Sigma-Aldrich Japan K. K.) solution in each well and kept stationary for 5 min at room temperature. Then all Triton X solution was discarded and replaced with 60 μL of 60% (v/v) isopropanol solution containing dissolved Oil Red O (Sigma-Aldrich Japan K. K.) so as to be 0.3%, which was adipose tissue staining solution, and the well was left stationary for 10 min at room temperature. After the adipose tissue staining solution was discarded, the well was washed twice with 60 JIL of 60% isopropanol solution. Then, 100 μL of the DMSO solution were added to each well and stirred for 5 min at room temperature, The absorbance was measured at 550 nm (ABS550) with a multi-plate reader (LabSystems), and the stained amount with Oil Red O was determined. The measured level at ABS550 in the control group was defined as 100%, while the level at ABS550 in the blank group was defined as 0%. The differentiation rate (%) of the adipocytes treated with the test compound was calculated.

With `CCCCCCN(CCC)c1ccc(-c2ccc(NC(=O)c3cc([N+](=O)[O-])ccc3Cl)cc2)cc1` [Example 198, N-[4-[4-(N-Hexyl-N-propylamino)phenyl]phenyl]-(2-chloro-5-nitrophenyl)carboxamide], in the assay with leptin production, the activity at 1 µM was determined as 111% and the activity at 0.1 µM was 111%. The activity at 0.1 µM in the assay on Rat white adipocytes came out at 48.2%.
As to `CCCCCCN(CCCCC)c1ccc(-c2ccc(NC(=O)c3cc([N+](=O)[O-])ccc3Cl)cc2)cc1` [Example 200, N-[4-[4-(N-Hexyl-N-pentylamino)phenyl]phenyl]-(2-chloro-5-nitrophenyl)carboxamide], the activity at 1 µM with leptin production worked out at 117%. In the assay with Rat white adipocytes, the activity at 0.1 µM is 44.1%.
Consider `CC(C)(C)OC(=O)N1CCN(c2ccc(NC(=O)c3cc([N+](=O)[O-])ccc3Cl)cc2)CC1` [Example 132, N-[4-(4-tert-Butoxycarbonylpiperazin-1-yl)phenyl]-(2-chloro-5-nitrophenyl)carboxamide], for which, in the assay on leptin production, the activity at 1 µM came to 127%, the activity at 0.01 µM was found to be 137% and the activity at 0.1 µM was 119%. Moreover, the activity at 0.001 µM in the assay with leptin production (1 nm) amounted to 123%. The activity at 0.1 µM in the assay on Rat white adipocytes came out at 26.9%.
`CNC(=S)Nc1ccc(-c2ccc(NC(=O)c3cc([N+](=O)[O-])ccc3Cl)cc2)cc1` [Example 236, N-[4-[4-(Methylaminothiocarbonylamino)phenyl]phenyl]-(2-chloro-5-nitrophenyl)carboxamide]: the activity at 0.01 µM with leptin production amounted to 112%. For the same molecule, the activity at 0.1 µM in the assay on Rat white adipocytes came out at 47.1%.
In the case of `CCCCCCN(CCCCCC)c1ccc(-c2ccc(NC(=O)c3cc([N+](=O)[O-])ccc3Cl)cc2)cc1` [Example 201, N-[4-[4-(N,N-Dihexylamino)phenyl]phenyl]-(2-chloro-5-nitrophenyl)carboxamide], in the assay with leptin production, the activity at 1 µM worked out at 112%. For the same molecule, the activity at 0.1 µM came out at 114% in the assay with leptin production and 46.9% in the assay on Rat white adipocytes.
For `CCCCCCCCN(C)c1ccc(-c2ccc(NC(=O)c3cc([N+](=O)[O-])ccc3Cl)cc2)cc1` [Example 226, N-[4-[4-(N-Methyl-N-octylamino)phenyl]phenyl]-(2-chloro-5-nitrophenyl)carboxamide], in the assay on leptin production, the activity at 0.01 µM came out at 111%. In the assay on Rat white adipocytes, the activity at 0.1 µM came to 42%.
`O=C(Nc1ccc(-c2ccc(-n3cccc3)cc2)cc1)c1cc([N+](=O)[O-])ccc1Cl` [Example 186, N-[4-[4-(Pyrrol-1-yl)phenyl]phenyl]-(2-chloro-5-nitrophenyl)carboxamide]: in the assay with leptin production, the activity at 1 µM was found to be 133%, the activity at 0.01 µM turned out to be 118% and the activity at 0.1 µM was determined as 117%. In addition, in the assay on Rat white adipocytes, the activity at 0.1 µM worked out at 56.3%.
The corresponding values for `O=C(Nc1ccc(-c2ccc(NC(=O)c3cc([N+](=O)[O-])ccc3Cl)cc2)cc1)Nc1ccc(F)cc1F` [Example 249, N-[4-[4-[(2,4-Difluorophenyl)aminocarbonylamino]phenyl]phenyl]-(2-chloro-5-nitrophenyl)carboxamide] are 111%, 114%, 113% and 61.9%.
The corresponding values for `CCCCCNc1ccc(-c2ccc(NC(=O)c3cc([N+](=O)[O-])ccc3Cl)cc2)cc1` [Example 202, N-[4-[4-(N-Pentylamino)phenyl]phenyl]-(2-chloro-5-nitrophenyl)carboxamide] are 137%, 136%, 133% and 35.4%.

The record behind these values is US20030134859A1 (SANKYO COMPANY, LIMITED, priority 2000, published 2003).
